Experimental findings from publication PMC9502272, “A Metabolomics Approach for Predicting OATP1B-Type Transporter-Mediated Drug–Drug Interaction Liabilities” (Pharmaceutics, 2022) are described below.

This data set concerns the target T1, Oatp1b2 (Mus musculus, UniProt Q9JJL3).
T1 sequence (Q9JJL3 1-689): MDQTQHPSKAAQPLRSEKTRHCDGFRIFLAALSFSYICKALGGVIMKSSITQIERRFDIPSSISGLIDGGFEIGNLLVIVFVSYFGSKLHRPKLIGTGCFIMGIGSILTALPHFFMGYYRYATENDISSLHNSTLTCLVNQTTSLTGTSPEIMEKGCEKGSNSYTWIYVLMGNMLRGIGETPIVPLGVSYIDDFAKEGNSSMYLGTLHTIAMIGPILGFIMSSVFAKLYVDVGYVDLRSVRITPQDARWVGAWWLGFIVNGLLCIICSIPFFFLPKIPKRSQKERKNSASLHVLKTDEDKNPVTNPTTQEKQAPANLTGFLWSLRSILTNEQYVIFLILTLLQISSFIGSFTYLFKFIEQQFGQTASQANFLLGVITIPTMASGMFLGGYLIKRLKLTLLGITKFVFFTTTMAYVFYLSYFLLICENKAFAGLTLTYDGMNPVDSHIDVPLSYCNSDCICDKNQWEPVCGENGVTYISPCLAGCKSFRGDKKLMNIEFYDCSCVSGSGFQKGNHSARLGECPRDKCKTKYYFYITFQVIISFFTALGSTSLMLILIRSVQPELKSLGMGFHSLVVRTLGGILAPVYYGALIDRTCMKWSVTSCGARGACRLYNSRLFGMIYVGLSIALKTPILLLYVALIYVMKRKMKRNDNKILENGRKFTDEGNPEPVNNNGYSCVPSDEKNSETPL
In words: Untargeted metabolomics of plasma from untreated wild-type and Oatp1b2(−/−) mice. As to conditions: for Fold of Change KO/WT: plasma of untreated Oatp1b2-deficient (KO) vs wild-type (WT) mice, semi-quantitative, positive = higher in KO, n = 6 per group; for Mean value KO: plasma of untreated Oatp1b2-deficient mice; for Mean value KO / Mean value WT: raw area counts rescaled to median = 1; for Mean value WT: plasma of untreated wild-type mice.

Where a name gives a salt, the structure may show the parent alone.

As for `C[C@H](CCC(=O)O)[C@H]1CC[C@H]2[C@@H]3[C@H](O)[C@@H](O)[C@@H]4C[C@H](O)CC[C@]4(C)[C@H]3CC[C@]12C` [alpha-muricholate], the “Fold of Change KO/WT” value is given as 45.2, the “Mean value KO” value is given as 2.71 and the “Mean value WT” value is listed as “.0600”.
Consider `CCCCC/C=C\C/C=C\C/C=C\C/C=C\CCCC(=O)O[C@H](CC(=O)[O-])C[N+](C)(C)C` [arachidonoylcarnitine (C20:4)], for which the “Fold of Change KO/WT” value is reported as 1.92, the “Mean value KO” value was 1.53 and the “Mean value WT” value was “.796”.
Turning to `CCCCCCCCCCCCCCCCCCCC(=O)OC(CC(=O)[O-])C[N+](C)(C)C` (stereo not drawn) [arachidoylcarnitine (C20)], the “Fold of Change KO/WT” value turned out to be 1.36, the “Mean value KO” value was 1.21 and the “Mean value WT” value is reported as “.889”.
`CC(C)(O)CC(=O)O` [beta-hydroxyisovalerate]: the “Fold of Change KO/WT” value was 1.40, the “Mean value KO” value was found to be 1.17 and the “Mean value WT” value was “.835”.
For `C[C@H](CCC(=O)O)[C@H]1CC[C@H]2[C@@H]3[C@@H](O)[C@@H](O)[C@@H]4C[C@H](O)CC[C@]4(C)[C@H]3CC[C@]12C` [beta-muricholate], in that order: 15.2, 2.84 and “.187”.
Regarding `C=CC1=C(C)/C(=C/c2[nH]c(Cc3[nH]c(/C=C4\NC(=O)C(C)=C4C=C)c(C)c3CCC(=O)O)c(CCC(=O)O)c2C)NC1=O` [bilirubin (E,E)], the “Fold of Change KO/WT” value is on record as 6.12, the “Mean value KO” value turned out to be 1.17 and the “Mean value WT” value is “.191”.
Consider `C=CC1=C(C)/C(=C/c2[nH]c(Cc3[nH]c(/C=C4\NC(=O)C(C)=C4C=C)c(C)c3CCC(=O)O)c(CCC(=O)O)c2C)NC1=O` [bilirubin (Z,Z)], for which the “Fold of Change KO/WT” value turned out to be 5.25, the “Mean value KO” value was found to be 1.48 and the “Mean value WT” value was “.282”.
For `C=CC1=C(C)/C(=C/C2=NC(=C\c3[nH]c(/C=C4\NC(=O)C(C)=C4C=C)c(C)c3CCC(=O)O)/C(CCC(=O)O)=C2C)NC1=O` [biliverdin], the “Fold of Change KO/WT” value is 4.09, the “Mean value KO” value turned out to be 1.84 and the “Mean value WT” value is given as “.450”.
Turning to `CCCC(=O)NCC(=O)O` [butyrylglycine], the “Fold of Change KO/WT” value amounted to 1.72, the “Mean value KO” value is listed as 1.28 and the “Mean value WT” value is given as “.744”.
Take `C[C@H](CCC(=O)O)[C@H]1CC[C@H]2[C@@H]3[C@H](O)C[C@@H]4C[C@H](O)CC[C@]4(C)[C@H]3CC[C@]12C` [chenodeoxycholate]: the “Fold of Change KO/WT” value was determined as 3.57, the “Mean value KO” value is recorded as 2.09 and the “Mean value WT” value is listed as “.585”.
Regarding `CC(C)CCC[C@@H](C)[C@H]1CC[C@H]2[C@@H]3CC=C4C[C@@H](OS(=O)(=O)O)CC[C@]4(C)[C@H]3CC[C@]12C` [cholesterol sulfate], the “Fold of Change KO/WT” value turned out to be 1.23, the “Mean value KO” value is recorded as 1.08 and the “Mean value WT” value is reported as “.875”.
For the compound `O=C(O)CNC(=O)/C=C/c1ccccc1` [cinnamoylglycine], the “Fold of Change KO/WT” value is given as 1.99, the “Mean value KO” value was 1.54 and the “Mean value WT” value is “.776”.
Take `C[C@H](CCC(=O)O)[C@H]1CC[C@H]2[C@@H]3CC[C@@H]4C[C@H](O)CC[C@]4(C)[C@H]3C[C@H](OS(=O)(=O)O)[C@]12C` [deoxycholic acid 12-sulfate]: the “Fold of Change KO/WT” value was 1.25, the “Mean value KO” value is given as 1.06 and the “Mean value WT” value was “.851”.
Take `CCCCC/C=C\C/C=C\CCCCCCCCCC(=O)OC(CC(=O)[O-])C[N+](C)(C)C` (stereo not drawn) [dihomo-linoleoylcarnitine (C20:2)]: the “Fold of Change KO/WT” value worked out at 1.75, the “Mean value KO” value was found to be 1.37 and the “Mean value WT” value is “.785”.
On to `O=C(O)CCCCCCCCCCC(=O)O` [dodecanedioate (C12-DC)], for which the “Fold of Change KO/WT” value is 8.12, the “Mean value KO” value is reported as 2.97 and the “Mean value WT” value is reported as “.366”.
Consider `OC[C@@H](O)[C@@H](O)CO` [erythritol], for which the “Fold of Change KO/WT” value turned out to be 1.31, the “Mean value KO” value is given as 1.22 and the “Mean value WT” value was “.927”.
In the case of `CCO[C@@H]1O[C@H](CO)[C@@H](O)[C@H](O)[C@H]1O` [ethyl beta-glucopyranoside], the “Fold of Change KO/WT” value stood at 1.41, the “Mean value KO” value is recorded as 1.17 and the “Mean value WT” value is given as “.826”.
Consider `N[C@@H](CCC(=O)NCC(=O)O)C(=O)O` [gamma-glutamylglycine], for which the “Fold of Change KO/WT” value is listed as 1.23, the “Mean value KO” value was found to be 1.17 and the “Mean value WT” value is listed as “.950”.
For the compound `NCCOP(=O)(O)OCC(O)CO` (stereo not drawn) [glycerophosphoethanolamine], the “Fold of Change KO/WT” value was found to be 1.57, the “Mean value KO” value is recorded as 1.31 and the “Mean value WT” value is “.831”.
Turning to `C[N+](C)(C)CCOP(=O)([O-])OC[C@H](O)CO` [glycerophosphorylcholine (GPC)], the “Fold of Change KO/WT” value is reported as 1.34, the “Mean value KO” value is listed as 1.12 and the “Mean value WT” value is recorded as “.836”.
In the case of `O=C(O)CCCCCCCCCCCCCCCC(=O)O` [heptadecanedioate (C17-DC)], the “Fold of Change KO/WT” value worked out at 1.66, the “Mean value KO” value is listed as 1.36 and the “Mean value WT” value is reported as “.818”.
In the case of `CCCCCCC(=O)NCC(=O)O` [heptanoyl glycine], the “Fold of Change KO/WT” value is reported as 1.52, the “Mean value KO” value came to 1.32 and the “Mean value WT” value is listed as “.868”.
Regarding `O=C(O)CCCCCCCCCCCCCCC(=O)O` [hexadecanedioate (C16-DC)], the “Fold of Change KO/WT” value is 2.10, the “Mean value KO” value came to 1.57 and the “Mean value WT” value was “.749”.
Regarding `CCCCCC(=O)NCC(=O)O` [hexanoylglycine], the “Fold of Change KO/WT” value is 1.59, the “Mean value KO” value was 1.40 and the “Mean value WT” value is given as “.880”.
Turning to `C[N+]1(C)CCCC[C@H]1C(=O)[O-]` [homostachydrine], the “Fold of Change KO/WT” value came out at 1.19, the “Mean value KO” value amounted to 1.09 and the “Mean value WT” value was “.915”.
Regarding `O=S(=O)(O)Oc1ccc(O)cc1` [hydroquinone sulfate], the “Fold of Change KO/WT” value stood at 1.55, the “Mean value KO” value came to 1.32 and the “Mean value WT” value is “.849”.
The like results for `C[C@H](CCC(=O)O)[C@H]1CC[C@H]2[C@@H]3[C@H](O)[C@H](O)[C@@H]4C[C@H](O)CC[C@]4(C)[C@H]3CC[C@]12C` [hyocholate] were, in that order, 5.64, 1.41 and “.251”.
`C[C@H](CCC(=O)O)[C@H]1CC[C@H]2[C@@H]3C[C@H](O)[C@@H]4C[C@H](O)CC[C@]4(C)[C@H]3CC[C@]12C` [hyodeoxycholate]: the “Fold of Change KO/WT” value is on record as 14.7, the “Mean value KO” value stood at 3.94 and the “Mean value WT” value is on record as “.269”.
The like results for `NCCS(=O)O` [hypotaurine] were, in that order, 1.28, 1.14 and “.887”.
Regarding `O=C1Cc2ccccc2N1` [indolin-2-one], the “Fold of Change KO/WT” value is recorded as 1.51, the “Mean value KO” value was 1.20 and the “Mean value WT” value was “.797”.
For `OC[C@H]1O[C@@H](n2cnc3c(O)ncnc32)[C@H](O)[C@@H]1O` [inosine], the “Fold of Change KO/WT” value is listed as 2.07, the “Mean value KO” value was found to be 1.49 and the “Mean value WT” value is recorded as “.719”.
Take `CC(C)C(=O)O[C@H](CC(=O)[O-])C[N+](C)(C)C` [isobutyrylcarnitine (C4)]: the “Fold of Change KO/WT” value is on record as 1.40, the “Mean value KO” value turned out to be 1.15 and the “Mean value WT” value is “.817”.
The like results for `CC(C)CCC(=O)NCC(=O)O` [isocaproylglycine] were, in that order, 1.57, 1.28 and “.815”.
In the case of `O=C1CC(C(=O)O)C(C(=O)O)O1` (stereo not drawn) [isocitric lactone], the “Fold of Change KO/WT” value was found to be 1.22, the “Mean value KO” value was found to be 1.08 and the “Mean value WT” value is on record as “.884”.
Take `C[C@H](CCC(=O)O)[C@H]1CC[C@H]2[C@@H]3C[C@H](O)[C@@H]4C[C@@H](O)CC[C@]4(C)[C@H]3CC[C@]12C` [isohyodeoxycholate]: the “Fold of Change KO/WT” value was 2.46, the “Mean value KO” value turned out to be 0.940 and the “Mean value WT” value was “.382”.
For `CCCCC/C=C\C/C=C\CCCCCCCC(N)=O` [linoleamide (18:2n6)], in that order: 1.36, 1.29 and “.945”.
For `CCCCC/C=C\C/C=C\CCCCCCCC(=O)O[C@H](CC(=O)[O-])C[N+](C)(C)C` [linoleoylcarnitine (C18:2)], the “Fold of Change KO/WT” value worked out at 1.62, the “Mean value KO” value was 1.36 and the “Mean value WT” value is “.838”.
